Source: patent publication US6706748B2 (priority 2000, dated 2004)

Compound | melting point [°C]
COc1ccc(C(=O)CC(=O)c2snc(Cl)c2Cl)cc1 | 138 to 139
COc1ccc(S(=O)(=O)N(C(=O)c2snc(Cl)c2Cl)c2ccc(Cl)cc2)cc1 [Ia-68, N-(3,4-dichloro-5-isothiazolecarbonyl)-N-(4-chlorophenyl)-4-methoxybenzenesulfonamide] | 154 to 158

Other lines, results leading:

melting point [°C] | Compound
174 | CCOCOc1ccc(C(=O)CC(=O)c2snc(Cl)c2Cl)cc1 [Ic-145, 1-(3,4-dichloro-5-isothiazolyl)-3-(4-ethoxymethoxyphenyl)-1,3-propanedione]
119 to 122 | COC(=O)C(C#N)C(=O)c1snc(Cl)c1Cl (centres unmarked) [Ie-1, methyl 2-cyano-3-(3,4-dichloro-5-isothiazolyl)-3-oxopropanoate]
224 to 227 | O=C(CC(=O)c1snc(Cl)c1Cl)c1ccc(O)cc1 [Ic-148, 1-(3,4-dichloro-5-isothiazolyl)-3-(4-hydroxyphenyl)-1,3-propanedione]
